The RepoRT retention time repository (doi:10.1016/j.foodchem.2018.11.056)

Assay: RP, Thermo Scientific Hypersil GOLD aQ, 100 × 2.1 mm, 1.9 µm, 30 °C, 0.3 mL/min, estimated dead time 0.73 min; A: water + 0.1% formic acid; B: methanol + 0.1% formic acid + 4 mM ammonium formate; gradient (min/%B) 0/0 1/0 8/100 10/100
Conditions: stereoisomer not certain

SMILES | LC retention time
CC(C)CC1C(=O)N2CCCC2C2(O)OC(NC(=O)C3C=C4c5cccc6[nH]cc(c56)CC4N(C)C3)(C(C)C)C(=O)N12 (stereo not given) | 6.5 min
CC1=CC2OC3C(O)C(O)C(C)(C34CO4)C2(CO)C(O)C1=O (stereo not given) | 3.7 min
COc1c(C)c2c(c(O)c1CC=C(C)CCC(=O)O)C(=O)OC2 | 6.77 min
O=c1cc(CO)occ1O | 2.6 min
C=CC(C)(C)C12CC3C(=O)NC(=Cc4cnc[nH]4)C(=O)N3C1Nc1ccccc12 (stereo not given) | 6.61 min
CC(C)C1(NC(=O)C2C=C3c4cccc5[nH]cc(c45)CC3N(C)C2)OC2(O)C3CCCN3C(=O)C(Cc3ccccc3)N2C1=O (stereo not given) | 6.55 min
CC(C)CC1NC(=O)C(C)N(C)C(=O)CNC(=O)C(=Cc2ccccc2)N(C)C1=O (stereo not given) | 6.66 min
COc1cc2c(c3oc(=O)c4c(c13)CCOC4=O)C1C=COC1O2 (stereo not given) | 5.89 min
CC1=CC2c3cccc4[nH]cc(c34)CC2N(C)C1 (stereo not given) | 5.35 min
COc1cc2c(c3oc(=O)c4c(c13)CCC4=O)C1C=COC1O2 (stereo not given) | 6.26 min
CC1=C2C(=COC(C)C2C)C(=O)C(C(=O)O)=C1O (stereo not given) | 6.53 min
CC1=CC2OC3C(O)C(O)C(C)(C2(CO)CC1O)C31CO1 (stereo not given) | 3.76 min
COCC1OC(=O)c2coc3c2C1(C)C1=C(C3=O)C2CCC(=O)C2(C)CC1OC(C)=O (stereo not given) | 6.14 min
CC(=O)OCC12CC(OC(=O)CC(C)C)C(C)=CC1OC1C(O)C(OC(C)=O)C2(C)C12CO2 (stereo not given) | 6.78 min
CC1=CC2OC3C(OC4OC(CO)C(O)C(O)C4O)CC(C)(C34CO4)C2(CO)C(O)C1=O (stereo not given) | 4.29 min
CC1=CC2OC3C(O)C(O)C(C)(C2(CO)CC1OC(=O)CC(C)C)C31CO1 (stereo not given) | 6.17 min
COc1cc2c(c3oc(=O)c4c(c13)CCC4=O)C1CCOC1O2 (stereo not given) | 6.11 min
CCCCC(C)C(OC(=O)CC(CC(=O)O)C(=O)O)C(CC(C)CCCCCCC(O)CC(O)C(C)N)OC(=O)CC(CC(=O)O)C(=O)O (stereo not given) | 7.19 min
Cc1cc(O)cc2oc(=O)c3c(O)cc(O)cc3c12 | 6.89 min
CCCCC(C)C(OC(=O)CC(CC(=O)O)C(=O)O)C(CC(C)CC(O)CCCCC(O)CC(O)C(C)N)OC(=O)CC(CC(=O)O)C(=O)O (stereo not given) | 6.81 min
CC1CCC2C(C)(C)C(O)CCC2(C)C12Cc1c(O)cc3c(c1O2)CNC3=O (stereo not given) | 7.51 min
O=C1C=C2C(=CCOC2O)O1 (stereo not given) | 2.12 min
C=CC(C)(C)C12C=C(O)C(=O)N3C(=Cc4cnc[nH]4)C(=O)NC31N(OC)c1ccccc12 (stereo not given) | 6.11 min

SMILES | LC retention time
CC(=O)OCC12C(C=C(C)C(=O)C1O)OC1C(O)CC2(C)C12CO2 (stereo not given) | 5.25 min
CC(=O)OCC12CC(OC(=O)CC(C)C)C(C)=CC1OC1C(O)C(O)C2(C)C12CO2 (stereo not given) | 6.52 min
COc1cc2c(c3oc4cccc(O)c4c(=O)c13)C1C=COC1O2 (stereo not given) | 7.49 min
CC1CCCC(O)CCCCCc2cc(O)cc(O)c2C(=O)O1 (stereo not given) | 6.88 min
CN1C(=O)C23CC4=CC=CC(O)C4N2C(=O)C1(CO)SS3 (stereo not given) | 5.48 min
CC(=O)OCC12CC(O)C(C)=CC1OC1C(O)C(OC(C)=O)C2(C)C12CO2 (stereo not given) | 4.9 min
COc1cc2c(c3oc(=O)c4c(c13)CCOC4=O)C1CCOC1O2 (stereo not given) | 5.8 min
CCCCC(C)C(OC(=O)CC(CC(=O)O)C(=O)O)C(CC(C)CC(O)CCCCCCC(O)C(C)N)OC(=O)CC(CC(=O)O)C(=O)O (stereo not given) | 6.99 min
CC1Cc2ccc(C(=O)NC(Cc3ccccc3)C(=O)O)c(O)c2C(=O)O1 (stereo not given) | 6.78 min
CC(=O)OC1CC2(C)C3(CO3)C1OC1C=C(C)C(=O)C(O)C12CO (stereo not given) | 5.49 min
CC1CCCC(=O)CCCC=Cc2cc(O)cc(O)c2C(=O)O1 (stereo not given) | 7.16 min
CC1CCCC(=O)CCCCCc2cc(O)cc(O)c2C(=O)O1 (stereo not given) | 7.1 min
C=C1C2OC3C=C(C)C(=O)C(O)C3(CO)C1(C)CC2O (stereo not given) | 4.77 min
COC1C(OC(=O)C=CC=CC=CC=CC(=O)O)CCC2(CO2)C1C1(C)OC1CC=C(C)C (stereo not given) | 7.52 min
CC(=O)OC1C(O)C2OC3C=C(C)C(=O)C(O)C3(CO)C1(C)C21CO1 (stereo not given) | 4.69 min
CC(C)C1(NC(=O)C2CC3c4cccc5[nH]cc(c45)CC3N(C)C2)OC2(O)C3CCCN3C(=O)C(Cc3ccccc3)N2C1=O (stereo not given) | 6.46 min
CC(C)(O)C1OC2CCC3(C)C(O)(CCC4Cc5c([nH]c6ccccc56)C43C)C2=CC1=O (stereo not given) | 7.81 min
COc1cc(=O)oc(C=CC=CC=CC(C)=CC2(C)OC(C)C(C)(O)C2O)c1C (stereo not given) | 7.23 min
COc1cc2c(c3oc(=O)c4c(c13)CCC4=O)C1(O)C=COC1O2 (stereo not given) | 5.77 min
COc1ccc2c3c4n(c2c1)C(C=C(C)C)OOC(C)(C)CC4N1C(=O)C2CCCN2C(=O)C1(O)C3O (stereo not given) | 7.33 min
CC(C)CC1C(=O)N2CCCC2C2(O)OC(C)(NC(=O)C3C=C4c5cccc6[nH]cc(c56)CC4N(C)C3)C(=O)N12 (stereo not given) | 6.11 min
CC1=CC2OC3C(O)CC(C)(C34CO4)C2(CO)C(O)C1=O (stereo not given) | 4.26 min
